Publication PMC6748671, “Distribution of Small Molecular Weight Drugs into the Porcine Lens: Studies on Imaging Mass Spectrometry, Partition Coefficients, and Implications in Ocular Pharmacokinetics” (Molecular Pharmaceutics, 2019)
Where two headings read alike, the source gives them in different places.

What was measured:
[1] = set-up: method as in PMID 1898917; details: highest Kp of previous reports; cited from earlier work
[2] = pH 7.0; cited from earlier work
[3] = cited from earlier work
[4] = In vitro lens/buffer partition coefficient (Kp), isolated porcine lens, cassette mix, LC–MS/MS; details: for Kp at 4 h: pig, isolated porcine lens
[5] = Drug distribution in the porcine lens by MALDI-IMS; details: for share of total lens volume into which the drugs distributed: pig, 4 h; for distribution pattern in the lens (MALDI-IMS): porcine lens, 4 h in vitro incubation
Experimental: After 4 h, the buffer was removed from the vials and the lenses were rinsed with HBSS–HEPES and gently blotted dry. The lenses were weighed, snap-frozen with liquid nitrogen in flat-bottomed plastic tubes, and then stored at −80 °C until sample preparation and analysis with MALDI-IMS. For the experiment, a smaller set of 16 drugs was used.
The frozen lenses were mounted onto a chuck using an optimal cutting temperature compound (Sakura Finetek, CA, USA) on the equatorial side. The lenses were sectioned to 10 μm thickness at −20 °C on a Leica CM Cryostat (S3050, Leica Microsystems GmbH, Germany), equipped with a FEATHER Microtome C35 blade (pfm medical, UK), and collected on a cryofilm (3C16UF, SECTION-LAB Co. Ltd. Yokohama, Japan) by modified Kawamoto method.[23] The film was subsequently mounted onto a microscopy glass slide using a double-sided copper tape. The slides were washed twice with 50 mM ammonium formate for 30 s and dried in a vacuum desiccator. The sample slides contained three lens sections from the drug mixture experiment and three blanks. […] Matrix α-cyano-4-hydroxycinnamic acid (7 mg/mL in 50% acetonitrile containing 1% trifluoro acetic acid) (Sigma-Aldrich, St. Louis, MO, USA) was added via spray deposition using 10 passes, flow rate of 100 μL/min, temperature of 77 °C, track spacing of 2.5 mm, and velocity of 1300 mm/min (HTX Industries, TM-Sprayer, NC, USA).
MALDI Fourier transform-ion cyclotron resonance (FT-ICR)-IMS was performed using a Bruker 7T solariX XR mass spectrometer (Bruker Daltonics, Germany) at a 75 μm spatial resolution.
The drugs were identified as their [M + H]^+ ions. Peak finding was performed using mass error less than 2.5 ppm. MALDI images for each detected compound were plotted using a 0.01 μ mass window. From the images of the individual drugs, the intensity profiles across a 30 pixel (2.25 mm) wide area in anterior–posterior axis were plotted with ImageJ software (National Institutes of Health, USA).

[6] = set-up: method as in PMID 2724118; details: lowest Kp of previous reports; cited from earlier work
[7] = set-up: method as in PMID 7341754, PMID 2724118; details: in rabbit and human; cited from earlier work
in vitro = details: pig
[8] = Pharmacokinetic simulation of topical timolol instillation with lens compartment; set-up: species or system rabbit
Experimental: A pharmacokinetic simulation model for rabbit was built for topical timolol instillation based on the model of Ranta et al.[25] The lens compartment, separate from the reservoir compartment, was added to the model (Figure 1). The unknown parameter values for timolol distribution clearance between aqueous humor and lens (QLENS), Kp, and clearance from tear fluid to cornea (CLTF,CO) were obtained by adjusting the values manually until the simulated concentration in the lens matched with in vivo data on timolol distribution to the rabbit lens.[26] Finally, the distribution clearance between the aqueous humor and the reservoir (QRESERVOIR) and the volume of the reservoir (VRESERVOIR) were adjusted to match the corresponding parameters in the original model. For details of the model building and parameters, see the Supporting Information. STELLA software (v8.1.1, isee systems) was used to construct the simulation model.
Kinetic simulations were carried out to estimate how drug partitioning into the lens might affect ocular pharmacokinetics after single and multiple doses of eye drops. […] The run time was 7 days and the delta time was 0.5 min.
Pharmacokinetic simulations
The pharmacokinetic simulation model was built on a model of topical timolol instillation4, where a lens compartment, separate from the reservoir compartment, was added . Experimental concentration -time data, extracted with Webplotdigitizer ( v4.2, https://automeris.io/WebPlotDig-itizer), in the aqueous humor and lens after topical dosing of timolol 5 was used as a basis for the […]
The timolol distribution clearance between aqueous humor and lens (QLENS), lens-buffer partition coefficient (Kp) and clearance from tear fluid to cornea (CL TF,CO) were obtained by com-paring the simulated curves with experimental in vivo data on timolol distribution in the rabbit […]
and QLENS values, the distribution clearance between aqueous humor and reservoir (QRESERVOIR) and volume of the reservoir (VRESERVOIR) were changed to match the corresponding parameters in the original model4 (Supplementary table 1).
Supplementary figure 6. Adjustment of the lens-aqueous humor partition coefficient (Kp), the clearance between aqueous humor and lens (QLENS) and clearance from tear fluid to cornea (CLTF,CO) with experimental data5.
(1 picture or pasted object on this page, not shown here)
Supplementary table 1. Parameters for the pharmacokinetic simulation model.

[9] = rabbit model parameter, cited from earlier work
[10] = rabbit, adjusted from original model
[11] = rabbit, adjusted with experimental in vivo data

## CCCCCOc1ccc(C2SC(=O)NC2=O)cc1OCC (centres unmarked) [CT-112]
[1]
  lens Kp in previous reports: 8

## CCN(CC)c1ccc2c(-c3ccccc3C(=O)O)c3ccc(=[N+](CC)CC)cc-3oc2c1 [Rhodamine-B]
[2]
  experimental log D7.0: 2

## C[C@@H]1C[C@H]2[C@@H]3CCC4=CC(=O)C=C[C@]4(C)[C@@]3(F)[C@@H](O)C[C@]2(C)[C@@]1(O)C(=O)CO [dexamethasone]
[3]
  concentration in the lens in vivo compared with aqueous humor, iris and ciliary body: much lower

## O=C(O)Cc1ccccc1Nc1c(Cl)cccc1Cl [diclofenac]
[4]; porcine lens in vitro, incubation time 4 h (Figure S7)
  concentration equilibrium between incubate and lens at 4 h: would have required longer incubation time to reach true equilibria

## O=C1OC2(c3ccc(O)cc3Oc3cc(O)ccc32)c2ccccc21 [fluorescein sodium]
[2]
  experimental log D7.0: 0.1

## CC(=O)/N=c1/sc(S(N)(=O)=O)nn1C [methazolamide]
[4]
  Kp at 4 h: 0.047

## CC[C@@H]1C(=O)OC[C@@H]1Cc1cncn1C [pilocarpine]
[5]
  share of total lens volume into which the drugs distributed: 27.1%
  distribution pattern in the lens (MALDI-IMS): only in the capsule and cortex of the lens but not in the nucleus
[6]
  lens Kp in previous reports: about 0.3
[7]
  lens Kp, previous literature: 0.3–1.0
[3]
  concentration in the lens in vivo compared with aqueous humor, iris and ciliary body: much lower
[4]
  Kp at 4 h: 0.145

## CC(C)NCC(O)COc1cccc2[nH]ccc12 (centres unmarked) [pindolol]
[5]
  share of total lens volume into which the drugs distributed: 27.1%

## CC(C)NCC(O)COc1cccc2ccccc12 (centres unmarked) [propranolol]
[5]
  share of total lens volume into which the drugs distributed: 27.1%
In vitro
  Kp at 4 h: 0.762

## CC(C)(C)NC[C@H](O)COc1nsnc1N1CCOCC1 [timolol]
[8]; [10]
  QRESERVOIR (distribution clearance between aqueous humor and reservoir): 11.888 µL/min
  VRESERVOIR (reservoir volume): 262 µL
[8]; [11]
  CLTF,CO (clearance from tear fluid to cornea): 1.3 µL/min
  QLENS (distribution clearance between aqueous humor and lens): 0.6 µL/min
[8]; topical, rabbit lens, adjusted manually to in vivo data on timolol distribution (Lee et al.), read-out: Kp (lens-buffer partition coefficient), model parameter
  Kp: 0.35
[9]; aqueous humor, ref SI 4, 8
  kel (elimination rate constant): 0.057 min⁻¹
[9]; ref SI 4, 7
  CLTF,CJ (clearance from tear fluid by conjunctival absorption): 10.4 µL/min
[3]
  concentration in the lens in vivo compared with aqueous humor, iris and ciliary body: much lower

## Clc1ccc2nsnc2c1NC1=NCCN1 [tizanidine]
[5]
  share of total lens volume into which the drugs distributed: 27.1%
  distribution pattern in the lens (MALDI-IMS): only in the capsule and cortex of the lens but not in the nucleus

## Rhodamine-123
[2]
  experimental log D7.0: 0.4
